Assay results: PMC9998502, “Functional selectivity of EM-2 analogs at the mu-opioid receptor” (Frontiers in Pharmacology, 2023)

Tests used:
[1] = ref Bergese et al., 2019, cited from earlier work
[2] = Enzymatic degradation in rat brain homogenate; format: in vitro ADME; conditions: 37°C; for 100 x k, rate constant of degradation: up to 60 min; for half-life at 0.25 mM: rat, pH 7.4, rat brain homogenate, read-out: t1/2, degradation half-life
Experimental: Enzymatic degradation of EM-2 and the analogs was performed measuring their hydrolysis rates in the presence of rat brain homogenate. The homogenate was prepared prior to the experiment. Briefly, rat brains were homogenized in 20 volumes of Tris–HCl (50 mM, pH 7.4) using a Polytron and the obtained aliquots were stored at −80°C. In the experiment, aliquotes of brain homogenate (100 μL, 10 mg protein/mL) were incubated with 100 µL of a peptide (0.5 mM) over 0, 7.5; 15, 22.5; 30, and 60 min at 37°C, in a final volume of 200 µL. After the incubation the degradation reaction was stopped by placing the tube on ice and acidifying the content with 20 µL of HCl (1 M). The aliquots were centrifuged at 20,000 g for 10 min at 4°C. The supernatants were collected and filtered using Millex-GV syringe filters (Millipore). Then the analysis by HPLC on a Vydac C18 column (5 μm, 4.6 × 250 mm), using the solvent system of 0.1% TFA in water (A) and 80% acetonitrile in water containing 0.1% TFA (B) and a linear gradient of 0%–100% B over 25 min, was performed. Three independent experiments for each assay were carried out in duplicate. The rate constants of degradation (k) were obtained by the least square linear regression analysis of logarithmic peak areas [ln (A/AD)], where A—amount of remained peptide, AD—initial amount of peptide versus time. Degradation half-lives (t1/2) were calculated from the rate constants as ln2/k.

[3] = n-Octanol/water partition coefficient (log P); format: physicochemical; conditions: n-octanol / 0.05 M HEPES buffer in 0.1 M NaCl, pH 7.4
Experimental: Determination of log P was performed according to the method described by ([Liu et al., 2006]). Peptides were dissolved in 0.05 M HEPES buffer in 0.1 M NaCl, pH 7.4, then an equal volume of n-octanol was added and mixtures were vortexed for 2 min. Samples were centrifuged at 4,000 rpm for 1 min. After separation, aqueous and octanol phases were used to quantify peptide content by RP-HPLC.
Octanol phase was lyophilized and reconstituted in 80% acetonitrile in water containing 0.1% TFA before RP-HPLC. All n-octanol/buffer distribution studies were performed in triplicate.

[4] = target: T1, human recombinant mu opioid receptor (Homo sapiens, UniProt P35372); assay: Radioligand binding, [3H]DAMGO displacement, CHO cell membranes
T1 construct: purchased; host or cells: CHO cells (membranes)
T1 sequence (P35372 whole entry): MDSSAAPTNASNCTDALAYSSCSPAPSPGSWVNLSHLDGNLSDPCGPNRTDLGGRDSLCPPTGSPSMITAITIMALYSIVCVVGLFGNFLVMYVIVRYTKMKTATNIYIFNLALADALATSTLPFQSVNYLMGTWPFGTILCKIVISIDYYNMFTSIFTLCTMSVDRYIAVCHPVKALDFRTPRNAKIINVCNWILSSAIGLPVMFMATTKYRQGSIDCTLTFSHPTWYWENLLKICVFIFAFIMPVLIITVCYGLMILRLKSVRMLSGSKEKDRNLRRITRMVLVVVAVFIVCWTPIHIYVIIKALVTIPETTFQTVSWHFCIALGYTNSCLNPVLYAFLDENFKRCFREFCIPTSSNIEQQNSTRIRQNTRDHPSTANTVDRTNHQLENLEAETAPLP

[5] = target: T2, human recombinant kappa opioid receptor (Homo sapiens, UniProt P41145); assay: Radioligand binding, [3H]U-69593 displacement, CHO cell membranes
T2 construct: purchased; host or cells: CHO cells (membranes)
T2 sequence (P41145 whole entry): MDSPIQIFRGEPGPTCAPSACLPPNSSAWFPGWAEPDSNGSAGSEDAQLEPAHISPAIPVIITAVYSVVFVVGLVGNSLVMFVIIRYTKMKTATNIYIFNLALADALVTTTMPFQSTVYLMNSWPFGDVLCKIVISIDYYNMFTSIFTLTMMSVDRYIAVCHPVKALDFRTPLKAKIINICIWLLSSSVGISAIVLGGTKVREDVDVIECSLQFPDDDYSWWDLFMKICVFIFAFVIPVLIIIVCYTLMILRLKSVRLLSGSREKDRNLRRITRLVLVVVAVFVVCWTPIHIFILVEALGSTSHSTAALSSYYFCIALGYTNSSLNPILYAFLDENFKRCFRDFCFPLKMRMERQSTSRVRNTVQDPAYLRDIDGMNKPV

human mu receptor = target: T3, human mu receptor (Homo sapiens, UniProt P35372); assay: Calcium mobilization assay, CHO mu cells expressing Gαqi5; format: cell-based; conditions: for mu α±SEM: intrinsic activity, Emax ratio to standard agonist EM-2, inactive = inactive up to 10 µM
T3 construct: expressed in transfected cells; host or cells: CHO cells stably co-expressing Gαqi5
T3 sequence (P35372 whole entry): as the sequence (P35372 whole entry) above

human kappa receptor = target: T4, human kappa receptor (Homo sapiens, UniProt P41145); assay: Calcium mobilization assay, CHO kappa cells expressing Gαqi5; format: cell-based; conditions: inactive = inactive up to 10 µM; for Kappa pEC50 (CL95%): calcium mobilization; for Kappa α± SEM: intrinsic activity, Emax ratio to standard agonist dynorphin A
T4 construct: expressed in transfected cells; host or cells: CHO cells stably co-expressing Gαqi5
T4 sequence (P41145 whole entry): as the sequence (P41145 whole entry) above

[6] = target: T5, mu receptor-β-arrestin 2 interaction (Homo sapiens, UniProt P35372); assay: cell-based; set-up: expressed in transfected cells; conditions: read-out: pKb (CL95%) (converted)
T5 sequence (P35372 whole entry): as the sequence (P35372 whole entry) above
Experimental: In antagonism experiments, a 10 min preincubation with vehicle or fixed concentrations of ligand preceded the injection of increasing concentrations of EM-2.
Antagonist potencies (pKb) were computed applying the following equation: pKb = (log (CR − 1)) − log [Anta] with CR as the ratio between agonist potency (molar) in the presence and absence of antagonist and [Anta] is the molar concentration of antagonist. pKb represents the concentration of antagonist that occupies half of the receptor population at equilibrium, expressed in molar units.

delta-opioid receptor [7] = target: T6, delta-opioid receptor (Homo sapiens, UniProt P41143); assay: Radioligand binding, [3H]deltorphin-2 displacement, CHO cell membranes; set-up: purchased; host or cells: CHO cells (membranes)
T6 sequence (P41143 whole entry): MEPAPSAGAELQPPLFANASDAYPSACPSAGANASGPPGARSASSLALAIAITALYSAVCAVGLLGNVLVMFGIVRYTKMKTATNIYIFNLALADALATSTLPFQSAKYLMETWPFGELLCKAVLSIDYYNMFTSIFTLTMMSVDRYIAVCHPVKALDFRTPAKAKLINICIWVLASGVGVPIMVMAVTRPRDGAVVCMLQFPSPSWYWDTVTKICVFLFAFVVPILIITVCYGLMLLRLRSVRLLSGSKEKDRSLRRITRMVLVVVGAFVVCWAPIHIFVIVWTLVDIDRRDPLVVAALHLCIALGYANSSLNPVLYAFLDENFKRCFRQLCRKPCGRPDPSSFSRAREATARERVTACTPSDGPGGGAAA

delta-opioid receptor [8] = target: T6, delta-opioid receptor; assay: Calcium mobilization assay, CHO delta cells expressing GαqG66Di5; format: cell-based; set-up: expressed in transfected cells; host or cells: CHO cells co-expressing GαqG66Di5; conditions: for Delta pEC50 (CL95%): calcium mobilization; for Delta pEC50 (CL95%) / Delta α± SEM: inactive = inactive up to 10 µM; for Delta α± SEM: intrinsic activity, Emax ratio to standard agonist DPDPE
[9] = target: mu receptor-G protein interaction (Homo sapiens, UniProt P35372); assay: BRET mu-G protein interaction assay (membranes of SH-SY5Y cells, mu-RLuc/Gβ1-RGFP)
Sequence of mu receptor-G protein interaction (P62871 whole entry): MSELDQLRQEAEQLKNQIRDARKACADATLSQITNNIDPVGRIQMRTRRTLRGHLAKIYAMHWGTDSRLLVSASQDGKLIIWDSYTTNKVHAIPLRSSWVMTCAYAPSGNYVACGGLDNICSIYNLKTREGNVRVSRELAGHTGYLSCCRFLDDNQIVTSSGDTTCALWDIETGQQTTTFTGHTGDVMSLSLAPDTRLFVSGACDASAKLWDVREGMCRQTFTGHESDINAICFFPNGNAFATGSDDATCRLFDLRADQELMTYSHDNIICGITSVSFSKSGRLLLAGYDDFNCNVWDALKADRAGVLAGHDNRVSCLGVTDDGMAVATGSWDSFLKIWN
Sequence of mu receptor-G protein interaction (P35372 whole entry): as the sequence (P35372 whole entry) above
Experimental: (§1) SH-SY5Y cells stably co-expressing the fusoproteins mu-RLuc and Gβ1-RGFP or mu-RLuc and β-arrestin 2-RGFP were grown in DMEM/F12 (1:1) medium supplemented with 10% FBS, 2 mM L-Glutamine, 100 μg/mL hygromycin B, 400 μg/mL G418, 100 units/mL penicillin G, 100 μg/mL streptomycin and 1 μg/mL Fungizone at 37°C in a humidified atmosphere with of 5% CO2.
Total protein in membrane preparations was determined by colorimetric method with the Quantum Protein-BCA kit (EuroClone, Pero (MI), IT) and measured using the multiplate reader Victor Nivo (PerkinElmer, Walthman, MA, United States). White opaque 96 wells microplates (PerkinElmer, Walthman, MA, United States) were used to carry out BRET assays. Cell membranes were thawed and resuspended in PBS supplemented with 0.02% BSA before the assay, and an amount of 5 μg of total protein was dispensed in each 96 well. All experiments were carried out at room temperature.
(§2) In agonism experiments, ligands were added and incubated for 5 min before microplate reading. […] BRET ratios were computed as follow: RGFPCPS/RLucCPSligand−RGFPCPS/RLucCPSvehicle
(§3) Concentration-response curves to agonists were fitted to the four-parameter logistic non-linear regression model as follows: Effect=Basal+Emax−Basal/1+10^LogEC50−Logligand×HillSlope

[10] = target: T5, mu receptor-β-arrestin 2 interaction; assay: BRET mu-β-arrestin 2 interaction assay (living SH-SY5Y cells, mu-RLuc/β-arrestin 2-RGFP), agonism; conditions: BRET mu-β-arrestin 2; Inactive: Emax < 0.10; analog 6 obtained by forcing the Emax to 1
Experimental: as §1
Mu- β-arrestin 2 interaction—Living SH-SY5Y cells expressing mu-RLuc and β-arrestin 2-RGFP were seeded at a cell density of 100,000 cells/well 24 h prior to the test. On the day of the experiment, medium was discarded, and cells were washed with PBS supplemented with 0.5 mM MgCl2, 0.9 mM CaCl2. Cells were subsequently incubated with 2 μM Prolume Purple Coelenterazine (NanoLight Technology, White Mountain, AZ; United States) for 10 min before bioluminescence reading.
as §2, §3

Row | SMILES | patients with lack of efficacy ([1]; moderate to severe acute pain in adults) | patients who experienced some adverse effects (vomiting, nausea, headache, or constipation) [1] | 100 x k, rate constant of degradation [2] | half-life at 0.25 mM ([2]; ln2/k) | logD [3] | Ki [4] | Ki [5] | EC50 (human mu receptor) | mu α±SEM (human mu receptor) | Kappa pEC50 (CL95%) (human kappa receptor) | Kappa α± SEM (human kappa receptor) | Kb [6] | Ki (delta-opioid receptor [7]) | Delta pEC50 (CL95%) (delta-opioid receptor [8]) | Delta α± SEM (delta-opioid receptor [8]) | EC50 [9] | β-Arrestin 2 pEC50 (CL95%) [10] | EC50 (delta-opioid receptor [8]) | t1/2, degradation half-life ([2]; ln2/k)
1 | COc1ccsc1CNCC[C@@]1(c2ccccn2)CCOC2(CCCC2)C1 [oliceridine, [(3-methoxythiophen-2-yl)methyl]({2-[(9R)-9-(pyridin-2-yl)-6-oxaspiro-[4.5]decan-9-yl]ethyl})amine] | less than 5% | 64% | – | – | – | – | – | – | – | – | – | – | – | – | – | – | – | – | –
2 | NC(=O)[C@H](Cc1ccccc1)NC(=O)[C@H](Cc1ccccc1)NC(=O)[C@H]1CCCCN1C(=O)[C@@H](N)Cc1ccc(O)cc1 [analog 2, Tyr-(R)-Pip-Phe-Phe-NH2] | – | – | 0.57 ± 0.08 per min | 121 ± 3.1 min | 2.3 | 17.7 ± 1.14 nM | > 1000 nM | 58.9 nM | 0.64 ± 0.04 | inactive | inactive | 170 nM | 682 ± 33 nM | inactive | inactive | 38 nM | Inactive | – | –
3 | Cc1cc(O)cc(C)c1C[C@H](N)C(=O)N1CCC[C@H]1C(=O)NC[C@@H](Cc1cccc2ccccc12)C(=O)N[C@@H](Cc1ccccc1)C(N)=O [analog 11, Dmt-Pro-(R)-β ^ 2 -1-Nal-Phe-NH2] | – | – | 0.56 ± 0.02 per min | 123 ± 5.9 min | 2.71 | – | > 1000 nM | 9.77 nM | 0.57 ± 0.05 | inactive | inactive | 0.398 nM | – | inactive | inactive | 4.9 nM | Inactive | – | –
4 | Cc1cc(O)cc(C)c1C[C@H](N)C(=O)N1CCCC[C@@H]1C(=O)N[C@@H](Cc1ccccc1)C(=O)N[C@@H](Cc1ccccc1)C(N)=O [analog 3, Dmt-(R)-Pip-Phe-Phe-NH2] | – | – | 0.73 ± 0.07 per min | 94.5 ± 2.8 min | 2.49 | 3.92 ± 0.5 nM | 72 ± 6 nM | 1.51 nM | 0.70 ± 0.03 | inactive | inactive | 0.0794 nM | 37 ± 5 nM | – | 0.56 ± 0.05 | 1.91 nM | Inactive | 148 nM | –
5 | NC(=O)[C@H](Cc1ccccc1)NC(=O)[C@@H](CNC(=O)[C@@H]1CCCN1C(=O)[C@@H](N)Cc1ccc(O)cc1)Cc1cccc2ccccc12 [analog 10, Tyr-Pro-(R)-β ^ 2 -1-Nal-Phe-NH2] | – | – | 0.41 ± 0.02 per min | 168 min | 2.5 | – | > 1000 nM | – | 0.25 ± 0.06 | inactive | inactive | 631 nM | > 1000 nM | inactive | inactive | 105 nM | Inactive | – | 168.3 ± 5.5 min
